Data: patent US6395787B1, “Ocular hypotensive lipids” (Allergan Sales, Inc., priority 2000, dated 2002)

What was measured:
intraocular pressure = conditions: prior art research of the assignee; cited from earlier work
[1] = test system: rabbit jugular vein segment; assay: Vasorelaxation of histamine precontracted rabbit jugular vein segment
Description: Smooth muscle tension of isolated tissues was measured isometrically with force displacement transducers (Grass FT-03) and recorded on Grass Polygraphs (Models 7G and 79E). The organ baths contained Krebs solution maintained at 37° C. and gassed with 95% 02/5% CO2 to give a pH of 7.4. The Krebs solution had the following composition (mM): NaCl, 118.0; KCl, 4.7; KH2PO4, 1.2; CaCl2, 1.9; MgSO4, 1.18; NaHCO3, 25.0; glucose, 11.7; indomethacin, 0.001.
New Zealand albino rabbit of either sex, weighing 2-4 kg, were injected with 1000 U heparin into the marginal ear vein and then sacrificed by CO2 gas. The external jugular veins were cleared of fat and adherent connective tissue and removed. The veins were transected and each ring of 3-4 mm length was suspended between two metal hooks in a jacketed organ bath. The tissues were equilibrated for 1 hr under 0.75 g tension, which was readjusted as the tissues relaxed. Single doses of histamine, 10^−5 M then 2-3×10^−6 M, with washing after each dose, were given to contract the tissue and establish responsiveness. The TP-receptor antagonist SQ29548, (Ogletree et al. (1985) J. Pharmacol. Exp. Ther. 234 435-441) at (10^−6 M), was applied for 5 min and then histamine 2-3×10^−6 M was added to elicit the contractile response. After 30 min of pretreatment with the histamine, the relaxant response was tested by adding cumulative doses of the test compounds with 10^−8 M to 10^−7 M PGE2 at the end of each dose-response curve as a reference. A recovery period of 30-50 min was allowed after wash-out of the tissues. Relaxant activity was calculated as % of the control tone elicited by histamine.

human FP receptor = human FP receptor (Homo sapiens, UniProt P43088); assay: Ca2+ signal in CRL 1497 cells; assay type: cell-based; parameters: endogenous in cells; host or cells: CRL 1497 human dermal fibroblasts; Δ[Ca^2+]i mean χ ± SEM: unit not given here; conditions: CRL 1497 cells, n = 4
Sequence of human FP receptor (P43088 whole entry): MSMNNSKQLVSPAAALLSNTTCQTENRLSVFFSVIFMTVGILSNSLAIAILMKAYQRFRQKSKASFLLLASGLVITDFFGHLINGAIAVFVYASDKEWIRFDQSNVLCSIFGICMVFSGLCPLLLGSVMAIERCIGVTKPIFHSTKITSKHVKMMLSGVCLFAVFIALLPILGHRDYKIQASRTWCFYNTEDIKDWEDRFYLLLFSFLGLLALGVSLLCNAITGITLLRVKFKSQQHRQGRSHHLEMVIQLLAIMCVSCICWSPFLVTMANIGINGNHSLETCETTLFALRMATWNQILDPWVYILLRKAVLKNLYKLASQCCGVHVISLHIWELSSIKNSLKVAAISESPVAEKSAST
Description: (§1) Human CRL 1497 cells were plated in culture flasks and fed Dulbecco's modified Eagle's medium (DMEM) containing 10% fetal calf serum, 2 mM 1-glutamine, and 0.05 mg/ml gentacin (all purchased from Gibco, Grand Island, N.Y.). Cell cultures were maintained in a humidified atmosphere of 95% air, 5% CO2 and grown to confluency. Cells were removed from the culture flasks by approximately 1 min treatment with trypsin 0.05%/0.53 mM EDTA in Hanks Balanced Salt Solution (HBSS, Gibco, Grand Island, N.Y.) at 37° C. Proteolytic activity was arrested by adding 5 ml of 10% fetal bovine serum in DMEM. The cells were consecutively washed in Hank's BSS and medium containing 140 mM NaCl, […], 1 mM MgCl2, 1.5 mM CaCl2, 10 mM HEPES: TRIS, 5 mM glucose, 5 mM Na pyruvate, 0.1% bovine serum albumin at pH 7.4: Centrifugation for the washes was performed for 15 minutes at 200 g at room temperature. Cells were counted, resuspended in the above medium and incubated with 2×10^−6 M Fura 2/acetoxymethyl ester in a shaking water bath for 30 minutes at 37° C. The cells were subsequently washed in medium as above and resuspended at a concentration of 2×10^6 cells ml^−1. Aliquots of 0.5 ml cell suspension were then added to autocap microtubes to provide 10^6 cells per experimental determination of intracellular free Ca^2+ concentration ([Ca^2+]i).
(§2) Fluorescence was measured in a Perkin-Elmer LS-5 fluorescence spectrophotometer at excitation and emission wavelengths of 340 and 492 nm, respectively, with both slits at 10 nm. For each experimental determination 10^6 cells were washed (200×g for 5 min) and suspended in a 2 ml cuvette with buffer containing 120 mM NaCl, 6 mM KCl, 1 mM MgSO4, 1.5 mM CaCl2, 20 mM HEPES, 1 mg ml^−1 glucose and 1 mg ml^−1 Na pyruvate. Stirring was achieved by an overhead-mounted, paddle stirrer with the temperature maintained at 37° C. The cells were lysed with digitonin (10 μl of 100 mg ml^−1 DMSO) to obtain fmax. EGTA (100 mM) and sufficient 10N NaOH to adjust the pH to 8.5 were then successively added to obtain fmin.

[2] = molecular target: recombinant feline FP receptor (Felis catus, UniProt A0ABI7XJ69); assay: Ca2+ signal in HEK-293 cells stably transfected with recombinant feline FP receptor; assay type: cell-based, cat; conditions: HEK-293 cells, recombinant feline FP receptor; read-out: E.C.50, Ca2+ signal
Sequence of recombinant feline FP receptor (A0ABI7XJ69 entry or part of it): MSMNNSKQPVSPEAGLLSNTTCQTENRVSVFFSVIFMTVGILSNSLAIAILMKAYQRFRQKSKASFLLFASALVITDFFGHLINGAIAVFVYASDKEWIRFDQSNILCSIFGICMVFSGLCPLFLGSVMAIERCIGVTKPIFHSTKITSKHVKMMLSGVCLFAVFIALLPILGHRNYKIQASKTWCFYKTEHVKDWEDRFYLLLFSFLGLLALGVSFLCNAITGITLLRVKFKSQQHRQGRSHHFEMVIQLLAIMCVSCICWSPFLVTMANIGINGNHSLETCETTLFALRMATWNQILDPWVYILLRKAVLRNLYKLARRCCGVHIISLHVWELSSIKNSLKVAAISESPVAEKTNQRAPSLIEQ
Description: as §1, §2
HEK-293 cells were grown in DMEM with 10% fetal bovine serum (FBS), 250 μg ml^−1 G418 (Life Technologies) and 200 μg ml^−1 gentamicin or penicillin/streptomycin. […] For transfection, the cells were grown to 50-60% confluency on 10 cm plates. The plasmid pCEP4 incorporating cDNA inserts for the human FP receptor (20 μg) was added to 500 μl of 250 mM CaCl2. HEPES buffered saline×2 (2×HBSS, 280 mM NaCl, 20 mM HEPES acid, 1.5 mM Na2 HPO4, pH 7.05-7.12) was then added dropwise to a […], with continuous vortexing at room temperature. After 30 min, 9 ml DMEM were added to the mixture. The DNA/DMEM/calcium phosphate mixture was then added to the cells, which had been previously rinsed with 10 ml phosphate buffered saline (PBS). The cells were then incubated for 5 h. at 37° C. in humidified 95% air/5% CO2. The calcium phosphate solution was then removed and the cells were treated with 10% glycerol in DMEM for 2 min. The glycerol solution was then replaced by DMEM with 10% fetal bovine serum (FBS). The cells were incubated overnight and the medium was replaced by DMEM/10% FBS containing 250 μg ml^−1 G418 and penicillin/streptomycin. The following day hygromycin B was added to a final concentration of 200 μg ml^−1.
Ten days after transfection, hygromycin B resistant clones were individually selected and transferred to a separate well on a 24 well plate. […]

| Structure (SMILES) | intraocular hypotensive activity (intraocular pressure) | EC50 ([1]; Oryctolagus cuniculus, histamine precontracted, read-out: E.C.50, vasorelaxation of the precontracted rabbit jugular vein segment) | endothelium dependent vasorelaxation ([1]; histamine precontracted rabbit jugular vein segment) | Δ[Ca^2+]i mean χ ± SEM (human FP receptor; 10^−5 M) | Δ[Ca^2+]i mean χ ± SEM (human FP receptor; 10^−6 M) | Δ[Ca^2+]i mean χ ± SEM (human FP receptor; 10^−7 M) | Δ[Ca^2+]i mean χ ± SEM (human FP receptor; 10^−8 M) | Δ[Ca^2+]i mean χ ± SEM (human FP receptor; 10^−9 M) | EC50 [2] |
| --- | --- | --- | --- | --- | --- | --- | --- | --- | --- |
| CCNC(=O)CCC/C=C\C[C@@H]1[C@@H](/C=C/[C@@H](O)CCc2ccccc2)[C@H](O)C[C@@H]1O [prior art compound no. 1] | strong intraocular hypotensive activity |  |  |  |  |  |  |  |  |
| CCCCCC(/C=C/[C@H]1C(O)CC(O)[C@@H]1C/C=C\CCCC(N)=O)OC (stereo partly shown) [prior art compound no. 2] | strong intraocular hypotensive activity |  |  |  |  |  |  |  |  |
| CCCCC[C@H](O)/C=C/[C@@H]1[C@@H](C/C=C\CCCC(=O)O)[C@@H](O)C[C@H]1O [PGF2α, reference compound] |  | 5.3 nM | marked vasorelaxation | 136.7 ± 11.2 | 127.4 ± 7.6 | 124.1 ± 6.5 | 47.7 ± 9.4 | 5.6 ± 2.4 | 14 nM |
